Molecular target: T1, mTAAR7f (Mus musculus, UniProt Q5QD08)
T1 construct: gene Taar7f; full length; N-terminal signal peptide, twin-strep and SNAP-tag, C-terminal nanoluc; BRET partner NES-Venus-mini-Gs (reporter)
T1 sequence (Q5QD08 1-358): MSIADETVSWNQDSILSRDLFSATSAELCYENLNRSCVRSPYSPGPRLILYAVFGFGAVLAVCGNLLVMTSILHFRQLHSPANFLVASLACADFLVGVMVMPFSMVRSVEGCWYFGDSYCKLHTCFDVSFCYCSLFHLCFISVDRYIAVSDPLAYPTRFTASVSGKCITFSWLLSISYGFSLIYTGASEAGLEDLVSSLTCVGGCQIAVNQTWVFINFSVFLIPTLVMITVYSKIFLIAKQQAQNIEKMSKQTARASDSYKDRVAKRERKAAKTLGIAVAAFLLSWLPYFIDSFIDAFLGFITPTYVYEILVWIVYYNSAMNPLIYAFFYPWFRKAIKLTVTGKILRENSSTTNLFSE
Assay: BRET mini-Gs recruitment (nanoluc receptor, NES-Venus-mGs), concentration-response
Type: cell-based
Source text: BRET mini-Gs recruitment (nanoluc receptor, NES-Venus-mGs), concentration-response on mTAAR7f | BRET ratios measured for increasing concentrations of the agonist DMCHA for the wild-type mTAAR7f

CN(C)C1CCCCC1 [N,N-dimethylcyclohexylamine]
EC50: 8.51 µM
